According to US5882851A, “Cytochrome P-450 monooxygenases” (Novartis Finance Corporation, priority 1993, dated 1999):

Molecular target: T1, cytochrome P-450TYR (Sorghum bicolor, UniProt Q43135)
T1 construct: from tissue; host or cells: microsomes of etiolated Sorghum bicolor seedlings, solubilised and purified by dye columns
T1 sequence (Q43135 1-558): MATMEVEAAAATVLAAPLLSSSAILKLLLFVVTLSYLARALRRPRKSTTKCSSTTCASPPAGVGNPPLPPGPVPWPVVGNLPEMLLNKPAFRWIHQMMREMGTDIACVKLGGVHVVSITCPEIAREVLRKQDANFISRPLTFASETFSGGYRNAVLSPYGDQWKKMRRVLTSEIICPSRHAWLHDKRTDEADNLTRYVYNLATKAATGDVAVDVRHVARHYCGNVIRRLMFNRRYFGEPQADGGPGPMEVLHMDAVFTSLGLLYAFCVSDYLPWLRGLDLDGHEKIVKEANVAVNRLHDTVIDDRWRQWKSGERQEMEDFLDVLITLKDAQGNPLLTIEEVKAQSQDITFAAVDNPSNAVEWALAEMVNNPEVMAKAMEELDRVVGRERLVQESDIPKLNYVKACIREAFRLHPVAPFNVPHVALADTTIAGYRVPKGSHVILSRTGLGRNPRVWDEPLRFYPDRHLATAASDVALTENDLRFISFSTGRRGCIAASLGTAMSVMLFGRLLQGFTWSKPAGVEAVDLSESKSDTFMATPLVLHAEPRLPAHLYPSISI
Test: Substrate binding spectra of isolated sorghum cytochrome P-450TYR (difference spectrum A390-420)
Protocol: Cytochrome P-450 substrate binding spectra are recorded with stepwise increased substrate concentration until saturating conditions are reached.
Cytochrome P-450TYR in the oxidized state has a strong absorption peak at 420 nm, representing the low spin state of the iron of the heme group. The binding of a ligand to the heme group shifts the absorption maximum by changing the spin state of the iron. […] The following experimental procedure is used to obtain the substrate binding spectrum: two identical cuvettes containing a buffered solution of the isolated cytochrome P-450 are prepared. The substrate of the enzyme is added to the sample cuvette whereas the same volume of buffer is added to the other cuvette. The difference spectrum is then recorded in an SLM-Aminco DW2c spectrophotometer. The absorption difference, A390-420, is proportional to the concentration of cytochrome P-450TYR with a bound substrate at its active site. If a saturating concentration of substrate is added to the sample cuvette, the absorption difference is proportional to the concentration of the substrate specific cytochrome P-450 in the cuvettes. The saturating concentration of the substrate is determined by titrating the cytochrome P-450 sample with increasing amounts of substrate and monitoring A390-420.
If a cytochrome P-450 sample can be saturated with two different substrates, there may be two different cytochrome P-450 enzymes in the sample, or there may be one cytochrome P-450 enzyme able to bind to both substrates. To discriminate between these possibilities, saturating amounts of the two substrates are added sequentially and the A390-420absorption change is monitored. If, independent of the order of addition, the addition of the second sample gives rise to an increased A390-420value compared to the value after the addition of the first substrate, the two substrates are bound by different enzymes. If A390-420 remains unchanged upon addition of the second substrate, independent of the order of addition, both substrates bind to the same active site, i.e. to the same cytochrome P-450 enzyme.

For `N[C@@H](Cc1ccc(O)cc1)C(=O)O` [tyrosine, L-tyrosine], the “initial A390-420” value (30 μl 5 mM tyrosine added to 500 μl P-450TYR) was 0,0437, the “resulting A390-420” value (30 μl 5 mM tyrosine, dilution factor 530/500) was 0,0463 and the “initial A390-420” value (60 μl 5 mM tyrosine) was 0,0496. For the same compound, the “resulting A390-420” value (60 μl 5 mM tyrosine, dilution factor 560/500) was 0,0556, the “initial A390-420” value (90 μl 5 mM tyrosine) was 0,0486 and the “resulting A390-420” value (90 μl 5 mM tyrosine, dilution factor 590/500) was 0,0573. For the same compound, the “type of substrate binding spectrum” value (isolated sorghum P-450TYR) was “type I binding spectrum”.
